Experimental data taken from patent publication US20220281835A1, “PHENOL DERIVATIVES FOR USE AS ANTIMICROBIAL, ANTIBACTERIAL, BACTERICIDE” (SPECIAL PRODUCT'S LINE S.P.A., priority 2019, published 2022).
In brackets after ≈: the same amount, converted by molar mass.

What was measured:
[1] = system: Enterococcus faecalis strain 2 (collection); assay: MIC/MBC broth-dilution (micromethod), CLSI; type: cell-based; details: for MBC: E. FAECALIS strain 2, kills 99,9% of initial population
Excerpt: (§1) Determination of Minimal Inhibitory Concentration (MIC), Minimal Bactericidal Concentration (MBC), bactericidal curves and killing rate on Gram positive and Gram negative bacteria strains, for the evaluation of the bactericidal activity of compounds of example 1 (n. 1 to 14).
(§2) Sensitivity tests have been performed in broth-dilution (micromethod) with the purpose to test the possible bacteriostatic and/or bactericidal power in different compounds, in accordance with CLSI guidelines (Clinical and Laboratory Standards Institute). In details, phenotypic methods based on in vitro MIC and MBC determination have been performed on previously isolated bacterial strains, identified and characterized at the level of their antibiotic susceptibility profile. According to MIC and MBC data, the Killing Rate was calculated as the ratio between MBC and MIC on which basis it is possible to define the compounds tested as bactericides (killing rate=1-4), or bacteriostatic (killing rate >4).
(§3) Preparation of the solution containing molecules: for each molecule to be tested, solutions were made as DMSO Stock, with a concentration of 2.560 mg/ml, used to test 12 dilutions with the following scalar drug concentrations: 512-256-128-64-32-16-8-4-2-1-0.5-0.25 μg/ml. The scalar dilutions were prepared directly on plates by using Mueller Hinton Broth (MHB) as a solvent.
(§4) Bacterial suspension preparation: cryostrains preserved at −80° C. were recovered by incubation in growth medium (Brain Heart Infusion Broth, BHI) for 24-48 hours at 37° C. followed by passages in agar growth medium (Columbia Blood Agar). Colonies with less than 30 hours are suspended in MHB with the purpose to prepare a bacterial suspension with a turbidity of 0.5 MF, containing approximately 1.5×10^8 cfu/ml. This injection is additionally diluted in MHB until reaching a final concentration of 5×10^5 cfu/ml (range 3-7×10^5 cfu/ml). Identical volumes of this bacterial suspension are added on a plate, for each well containing drug scalar dilutions, to obtain a final concentration between 512 a 0.25 μg/ml. The set up of bacterial suspensions as well as the passage on slate has always been performed within 30 minutes, in order not to alter the concentration of the bacterial suspension. Simultaneously, check in broth-microdilution only with solvent (in order to exclude that the effect of growth inhibition might be due to the drug solution solvent), positive growth control in absence of DMSO and drug, and negative purity control only with injection broth are performed. As a consequence the slate is incubated at 37° C. for 24 and 48 hours in aerobes. The 24 hours MIC is considered as the minimum drug concentration able to inhibit bacterial growth, which makes it possible to observe the absence of bacterial growth and the absence of turbidity. The same observations are valid to evaluate 48 hours MIC. After the incubation, an equal volume of bacterial suspension from each well is plated on agar growth medium and incubated for 24-48 hours at a temperature of 37° C. in aerobes, in order to define the MBC after the incubation. The MBC is evaluated as the minimum concentration of drug able to kill the 99,9% of the initial bacterial population.
(§5) Bacterial strains: the bactericidal and/or bacteriostatic power of the synthesized compounds can be determined by using standard reference strains such as: • 1. S. Aureus ATCC 25923 res kan, tob, res streptogramine (sga-sgb, efflux), res mupirocina (at low level), res trimetoprim; • 2. S. Aureus strain 1 (collection) mec a+, res kan tob gen, res quinolones, lincosamides, res streptogramine (sga-sgb), mlsb+sa constituent, mlsb constituent, res mupirocine (low level), res trimetoprim; • 3. S. Aureus strain 2 (collection) acquired penicillinase, res kan tob, res streptogramine (sga-sgb, efflux), res mupirocine (low level), res trimetoprim; • 4. Enterococcus faecalis ATCC 51299 (str+gen res at high level, mlsb res, simil van b res); • 5. […]

[2] = system: S. Aureus strain 1 (collection) mec a+; assay: MIC/MBC broth-dilution (micromethod), CLSI; type: cell-based; details: Staphylococcus aureus; for MBC: kills 99,9% of initial population
Excerpt: as §1
In details, phenotypic methods based on in vitro MIC and MBC determination have been performed on previously isolated bacterial strains, identified and characterized at the level of their antibiotic susceptibility profile. According to MIC and MBC data, the Killing Rate was calculated as the ratio between MBC and MIC on which basis it is possible to define the compounds tested as bactericides (killing rate=1-4), or bacteriostatic (killing rate >4).
as §3
as §4, with “The 24 hours MIC is considered as the minimum drug concentration able to inhibit bacterial growth, which makes it possible to observe the absence of bacterial growth and the absence of turbidity.” left out, “incubation.” for “incubation. The MBC is evaluated as the minimum concentration of drug able to kill the 99,9% of the initial bacterial population.”
Bacterial strains: the bactericidal and/or bacteriostatic power of the synthesized compounds can be determined by using standard reference strains such as: • 1. S. Aureus ATCC 25923 res kan, tob, res streptogramine (sga-sgb, efflux), res mupirocina (at low level), res trimetoprim; • 2. S. Aureus strain 1 (collection) mec a+, res kan tob gen, res quinolones, lincosamides, res streptogramine (sga-sgb), mlsb+sa constituent, mlsb constituent, res mupirocine (low level), res trimetoprim; • 3. S. Aureus strain 2 (collection) acquired penicillinase, res kan tob, res streptogramine (sga-sgb, efflux), res mupirocine (low level), res trimetoprim; • 4. Enterococcus faecalis ATCC 51299 (str+gen res at high level, mlsb res, simil van b res); • 5. Enterococcus faecalis strain 1 (collection) (str+kan res at high level str res at high level tetracycline res); • 6. Enterococcus faecalis strain 2 (collection) (kan res at high level); • 7. E. coli of Collection: RESISTANT to ampicilline, amox+ac clav, ampicillinr+sulbactam, cefalexine, cefuroxime, cefuroxime axetil, cefixime, cefpodoxime, cefotaxime, ceftazidime, ceftriaxone, netilmicine, tobramicine, ciprofloxcine, trim/sulfametox, esbl pos, SENSITIVE to meropenem and gentamicine, INTERMEDIATE to amikacine; • 8. 8.

[3] = system: Enterococcus faecalis strain 1 (collection); assay: MIC/MBC broth-dilution (micromethod), CLSI; type: cell-based; details: for MBC: E. FAECALIS strain 1, kills 99,9% of initial population
Excerpt: as §1, §2, §3, §4, §5

S. Aureus ATCC 25923 = assay: MIC/MBC broth-dilution (micromethod), CLSI; type: cell-based; details: Staphylococcus aureus; for MBC: ATCC25923, kills 99,9% of initial population
Excerpt: as §1, §2, §3, §4, §5

[4] = system: S. Aureus strain 2 (collection); assay: MIC/MBC broth-dilution (micromethod), CLSI; type: cell-based; details: Staphylococcus aureus; for MBC: kills 99,9% of initial population
Excerpt: as §1, §2, §3, §4, §5

[5] = system: Enterococcus faecalis ATCC 51299; assay: MIC/MBC broth-dilution (micromethod), CLSI; type: cell-based; details: for MIC: ATCC51299, E. FAECALIS ATCC 51299, values without asterisk; for MBC: ATCC51299, E. FAECALIS ATCC 51299, kills 99,9% of initial population
Excerpt: as §1, §2, §3, §4, §5

[6] = system: A. baumannii of collection; assay: MIC/MBC broth-dilution (micromethod), CLSI; type: cell-based; details: Acinetobacter baumannii; for MBC: kills 99,9% of initial population
Excerpt: as §1, §2, §3, §4, §5

[7] = system: P. Aeruginosa of collection; assay: MIC/MBC broth-dilution (micromethod), CLSI; type: cell-based; details: Pseudomonas aeruginosa
Excerpt: as §1, §2, §3, §4, §5

E. coli of Collection = assay: MIC/MBC broth-dilution (micromethod), CLSI; type: cell-based; details: Escherichia coli
Excerpt: as §1, §2, §3, §4, §5

[8] = E. FAECALIS strain 2, marked *: MIC value read at 48 hours
[9] = E. FAECALIS strain 2, values without asterisk
[10] = marked *: MIC value read at 48 hours
[11] = E. FAECALIS strain 1, values without asterisk
[12] = ATCC25923, marked *: MIC value read at 48 hours
[13] = ATCC25923, values without asterisk
[14] = E. FAECALIS strain 1, marked *: MIC value read at 48 hours

SMILES: C/C(=C\c1ccc(-c2ccc(O)c(C34CC5CC(CC(C5)C3)C4)c2)cc1)C(=O)O [Compound 3, E-2-Methyl-3-[3′-(adamantan-1-yl)-4′-hydroxybiphenyl-4-yl]acrylic Acid]
- MBC [1]: 8 µg/mL (≈ 20.6 µM)
- MIC [1, 8]: 0.5 to 1 µg/mL (≈ 1.29 to 2.57 µM)
- melting point: 200 °C
- MBC [2]: 4 to 8 µg/mL (≈ 10.3 to 20.6 µM)
- MIC ([2]; values without asterisk): 2 µg/mL (≈ 5.15 µM)

SMILES: O=C(O)/C(F)=C\c1ccc(-c2ccc(O)c(C34CC5CC(CC(C5)C3)C4)c2)cc1 [Compound 5, E-2-Fluoro-3-[3′-(adamantan-1-yl)-4′-hydroxybiphenyl-4-yl]-acrylic Acid]
- MBC [1]: 16 µg/mL (≈ 40.8 µM)
- MIC [1, 9]: 4 µg/mL (≈ 10.2 µM)
- melting point: 202 °C
- MBC [2]: 8 to 16 µg/mL (≈ 20.4 to 40.8 µM)
- MIC [2, 10]: 2 to 4 µg/mL (≈ 5.1 to 10.2 µM)

SMILES: CC(C)(C)c1cc(-c2ccc(/C=C/C(=O)O)cc2)ccc1O [Compound 6, E-3-(3′-tert-Butyl-4′-hydroxybiphenyl-4-yl)acrylic Acid]
- melting point: 218 °C
- MIC ([2]; values without asterisk): 64 µg/mL (≈ 216 µM)

SMILES: O=C(O)C=Cc1ccc(-c2ccc(OCCCCO)c(C34CC5CC(CC(C5)C3)C4)c2)cc1 [Compound 11, 3-[3′-Adamantan-1-yl-4′-(hydroxy-butoxy)-biphenyl-4-yl]-acrylic acid]
- MIC [1, 9]: 128 µg/mL (≈ 287 µM)
- MIC [3, 11]: 128 µg/mL (≈ 287 µM)
- MIC (S. Aureus ATCC 25923; [12]): 128 to 256 µg/mL (≈ 287 to 573 µM)
- MIC [4, 10]: 128 to 256 µg/mL (≈ 287 to 573 µM)
- MIC [5]: 64 µg/mL (≈ 143 µM)
- MIC [2, 10]: 64 to 256 µg/mL (≈ 143 to 573 µM)

SMILES: CC(C)(C)ON=Cc1cc(C=CC(=O)O)ccc1-c1ccc(O)c(C23CC4CC(CC(C4)C2)C3)c1 [Compound 12, 3-[3′-Adamantan-1-yl-4′hydroxy-2-tert-butoxyiminomethyl-biphenyl-4-yl]-acrylic acid]
- MIC [6]: 128 µg/mL (≈ 270 µM)
- MBC [1]: 4 µg/mL (≈ 8.45 µM)
- MIC [1, 9]: 2 µg/mL (≈ 4.22 µM)
- MBC [3]: 8 µg/mL (≈ 16.9 µM)
- MIC [3, 11]: 2 µg/mL (≈ 4.22 µM)
- MBC (S. Aureus ATCC 25923): 4 µg/mL (≈ 8.45 µM)
- MIC (S. Aureus ATCC 25923; [13]): 2 µg/mL (≈ 4.22 µM)
- MIC [7]: 256 µg/mL (≈ 541 µM)
- MBC [4]: 2 µg/mL (≈ 4.22 µM)
- MIC ([4]; values without asterisk): 2 µg/mL (≈ 4.22 µM)
- MIC (E. coli of Collection): 256 µg/mL (≈ 541 µM)
- MBC [5]: 8 µg/mL (≈ 16.9 µM)
- MIC [5]: 2 µg/mL (≈ 4.22 µM)
- MBC [2]: 4 µg/mL (≈ 8.45 µM)
- MIC [2, 10]: 2 to 4 µg/mL (≈ 4.22 to 8.45 µM)

SMILES: CON=Cc1cc(/C=C/C(=O)O)ccc1-c1ccc(O)c(C23CC4CC(CC(C4)C2)C3)c1 [Compound 13, 3-[3′-Adamantan-1-yl-4′-hydroxy-2-methoxyimino-methyl-biphenyl-4-yl]-acrylic acid]
- MIC [6]: 128 µg/mL (≈ 297 µM)
- MBC [6]: 512 µg/mL (≈ 1190 µM)
- MBC [1]: 16 µg/mL (≈ 37.1 µM)
- MIC [1, 8]: 4 to 8 µg/mL (≈ 9.27 to 18.5 µM)
- MBC [3]: 16 µg/mL (≈ 37.1 µM)
- MIC [3, 14]: 4 to 8 µg/mL (≈ 9.27 to 18.5 µM)
- MBC (S. Aureus ATCC 25923): 4 µg/mL (≈ 9.27 µM)
- MIC (S. Aureus ATCC 25923; [13]): 2 µg/mL (≈ 4.63 µM)
- MIC [7]: 256 µg/mL (≈ 593 µM)
- MBC [4]: 32 µg/mL (≈ 74.2 µM)
- MIC ([4]; values without asterisk): 4 µg/mL (≈ 9.27 µM)
- MIC (E. coli of Collection): 512 µg/mL (≈ 1190 µM)
- MBC [5]: 32 µg/mL (≈ 74.2 µM)
- MIC [5]: 8 µg/mL (≈ 18.5 µM)
- MBC [2]: 4 µg/mL (≈ 9.27 µM)
- MIC [2, 10]: 2 to 4 µg/mL (≈ 4.63 to 9.27 µM)

SMILES: CCCCC/C=C\C/C=C\CCCCCCCC(=O)Oc1ccc(-c2ccc(/C=C/C(=O)O)cc2)cc1C12CC3CC(CC(C3)C1)C2 [Compound 20, (E)-Octadeca-9,12-dienoic acid 3-adamantan-1-yl-40-(2-carboxyvinyl)-biphenyl-4-yl ester]
- MIC [1, 9]: 128 µg/mL (≈ 201 µM)
- MIC [7]: 20 µg/mL (≈ 31.4 µM)
- MIC [2, 10]: 8 to 32 µg/mL (≈ 12.6 to 50.2 µM)

SMILES: O=C(O)/C=C/c1ccc(-c2ccc(O)c(C34CC5CC(CC(C5)C3)C4)c2)cc1 [adarotene, reference compound]
- MIC [6]: 128 µg/mL (≈ 342 µM)
- MBC [6]: 512 µg/mL (≈ 1370 µM)
- MBC [1]: 16 µg/mL (≈ 42.7 µM)
- MIC [1, 8]: 0.5 to 1 µg/mL (≈ 1.34 to 2.67 µM)
- MBC [3]: 32 µg/mL (≈ 85.5 µM)
- MIC [3, 14]: 2 to 4 µg/mL (≈ 5.34 to 10.7 µM)
- MBC (S. Aureus ATCC 25923): 16 µg/mL (≈ 42.7 µM)
- MIC (S. Aureus ATCC 25923; [12]): 4 to 8 µg/mL (≈ 10.7 to 21.4 µM)
- MIC [7]: 256 µg/mL (≈ 684 µM)
- MBC [4]: 8 µg/mL (≈ 21.4 µM)
- MIC ([4]; values without asterisk): 4 µg/mL (≈ 10.7 µM)
- MIC (E. coli of Collection): 256 µg/mL (≈ 684 µM)
- MBC [5]: 32 µg/mL (≈ 85.5 µM)
- MIC [5]: 2 µg/mL (≈ 5.34 µM)
- MBC [2]: 16 µg/mL (≈ 42.7 µM)
- MIC [2, 10]: 4 to 8 µg/mL (≈ 10.7 to 21.4 µM)
